{"source": "patent US20170058348A1", "about": "“Predictive mRNA Biomarkers for the Prediction of the Treatment with Methotrexate (MTX)” (Charité - Universitätsmedizin Berlin, priority 2014, published 2017)", "key": {"[1]": {"test_system": "patients with a clinically confirmed RA", "experiment": "Clinical response to MTX therapy in RA patients (DAS28, EULAR criteria)", "assay_type": "in vivo, human", "conditions": "Health Assessment Questionnaire; one line per individual RA patient; during MTX treatment", "protocol": "[…] patients with a clinically confirmed RA were examined in the series of tests for the identification and definition of biomarkers for therapy prediction with MTX. In this regard, 5 ml of whole blood was taken from the patients in 2 PAXgene tubes (PreAnalytiX, Hombrechtikon, Switzerland) and turned for 24 hours on an overhead roller at 20° C. (20 rpm); afterwards, they were frozen at −20° C. until worked up. The patient samples were acquired in the context of two clinical studies under standard conditions (HitHard study; n=29; own clinical study; n=22) and after authorization by the ethics commission of the charity, as well as the agreement of the patients. The clinical data, prior to MTX therapy and over the course of >1 year, were stored in the context of the study conditions in a clinical database in accordance with ISO 9001 standard guidelines. The calculation of the assessment of the MTX response before and during the therapy periods was carried out in accordance with the guidelines from the European League Against Rheumatism (ELUAR) using the “Disease Activity Score” considering 28 joints (DAS28; (van Gestel et al, 1999)). The MTX therapy response was classified, in accordance with the guidelines, into the following three groups: responders (R), moderate responders (MR) and non-responders (NR). […]"}, "RA patients": {"test_system": "RA patients", "conditions": "after a year (Furst 1996); cited from earlier work"}}, "note": "Where “and” joins values, the source holds several entries; their conditions need not be identical. Identical values can stand only once."}
{"smiles": "CN(Cc1cnc2nc(N)nc(N)c2n1)c1ccc(C(=O)N[C@@H](CCC(=O)O)C(=O)O)cc1", "note": "[MTX, methotrexate]", "values": [{"measurement": "HAQ", "setting": "[1]", "result": "0.6 (2×) and 0.8 and 1.3 (3×) and 0.3 (3×) and 0.0 (3×) and 0.1 (4×) and 1.0 (2×) and 0.5 (2×) and 0.75 and 1.1 (3×) and 0.4 and 1.4 and 0.9 and 1.5 and 1.9 and 2.3"}, {"measurement": "sustained success rates", "setting": "RA patients", "result": "40-50%"}]}
